Reference: EP4806890A1, “CRYSTALLINE COMPOUND OR BASIC SALT THEREOF, PREPARATION METHOD THEREFOR, AND USE THEREOF” (Abbisko Therapeutics Co., Ltd., priority 2023, dated 2025)
Entries after “also recorded” stand apart in the source; their conditions may differ. Counter-ions that a name gives are not always drawn. Blank lines part the entries; values can stand above or below the compound they belong to.

Columns and labels:
Assay type in all cases: physicochemical
[1] = Solubility determination (equilibrium solubility, 24 hrs stirring at room temperature, HPLC); conditions: for Equilibrium solubility: target concentration 2000 µg/mL, 24 hrs; for pH24 hrs: pH of the filtrate after 24 hrs; for solubility (in words): various pH conditions, buffers and biological medium solutions
Procedure: (§1) The stability and solubility of the crystalline free form of the compound of formula (I) or the basic salt thereof of the present application were determined by HPLC.
The desired amount of the compound was weighed into a glass vial, and the desired amount of a vehicle was added. A stir bar was added to the vial, and the mixture was stirred at room temperature for 24 hrs. After 24 hrs, the appearance of the sample was observed. An appropriate amount of the sample was filtered through a PVDF 0.45 µm filter membrane, and the filtrate was collected. The pH value of the filtrate was determined, and the sample was diluted with MeOH. The diluted sample was injected into an HPLC system to determine the concentration.

[2] = Hygroscopic behavior test by dynamic vapor sorption (DVS); conditions: for hygroscopicity (in words): DVS, 25 °C
From the text: The experimental method of characterizing the crystalline free form of the compound of formula (I) or the basic salt thereof using dynamic vapor sorption (DVS) is as follows: a small amount of the crystalline sample was placed in a precision sample tray that was compatible with the instrument; after the sample was loaded, the sample tray was placed into the instrument for analysis. In this patent, the instruments used for dynamic vapor sorption were all the DVS Intrinsic plus model, and the following experimental parameters were set: nitrogen was used as the carrier gas, a constant temperature of 25 °C was set, the rate of mass percentage change over a unit of time (dm/dt) = 0.002%/min was used as a criterion for determining if equilibrium is reached, and the program humidity change cycle was set to 50-95-0-95-50% RH; within the range of 0-90% RH, a change of 10% RH was taken as a step, and within the range of 90% RH-95% RH, a change of 5% RH was taken as a step.
In the present invention, the hygroscopic weight increases (hygroscopic weight increase/weight before hygroscopy * 100%) of various crystalline forms under various relative humidity conditions were determined using the dynamic vapor sorption method, and the hygroscopicity of different crystalline compounds was evaluated.

[3] = Stability determination (thermal stability and photostability, HPLC purity, appearance, XRPD); conditions: for XRPD: crystalline form found
Procedure: as §1
An appropriate amount of the sample was placed in a vial and left to stand at 50 °C, 80 °C or 50 °C & 75% RH (open) for 7 days to evaluate thermal stability. An appropriate amount of the sample was placed in a transparent vial, […] evaluation under conditions of overall near-ultraviolet energy of 1.2 * 10^6 Lux·hr and no less than 200 W·hr/m2.

[4] = pH 4.7, 50 mM acetic acid buffer
[5] = pH 6.8, 50 mM phosphoric acid buffer
[6] = Aluminum foil light exposure control, 9.2 days
[7] = Transparent light exposure, 9.2 days
[8] = Brown vial light exposure control, 9.2 days

Equilibrium solubility ([1]; FaSSGF): 117.15 µg/mL
Equilibrium solubility ([1]; FaSSIF): 306.56 µg/mL
Equilibrium solubility ([1]; FeSSIF): 1723.16 µg/mL
Equilibrium solubility ([1]; Water, room temperature): 69.47 µg/mL
Equilibrium solubility ([1]; pH 1.2, HCl 100 mM): 244.49 µg/mL
Equilibrium solubility [1, 4]: 67.33 µg/mL
Equilibrium solubility [1, 5]: 61.01 µg/mL
pH24 hrs ([1]; FaSSGF): 1.58
pH24 hrs ([1]; FaSSIF): 6.42
pH24 hrs ([1]; FeSSIF): 4.99
pH24 hrs ([1]; Water): 5.52
pH24 hrs ([1]; pH 1.2, HCl 100 mM): 1.15
pH24 hrs [1, 4]: 4.68
pH24 hrs [1, 5]: 6.93
hygroscopicity (in words) [2]: moderate hygroscopicity
hygroscopicity (in words) ([2]; listed as crystalline form F): moderately hygroscopic
Hygroscopic weight increase (%) ([2]; Relative humidity 0.0 % at 25 °C): 0.00%
Hygroscopic weight increase (%) ([2]; Relative humidity 10.0 % at 25 °C): 0.18%
Hygroscopic weight increase (%) ([2]; Relative humidity 20.0 % at 25 °C): 0.38%
Hygroscopic weight increase (%) ([2]; Relative humidity 30.0 % at 25 °C): 0.60%
Hygroscopic weight increase (%) ([2]; Relative humidity 40.0 % at 25 °C): 0.84%
Hygroscopic weight increase (%) ([2]; Relative humidity 50.0 % at 25 °C): 1.14%
Hygroscopic weight increase (%) ([2]; Relative humidity 60.0 % at 25 °C): 1.54%
Hygroscopic weight increase (%) ([2]; Relative humidity 70.0 % at 25 °C): 2.04%
Hygroscopic weight increase (%) ([2]; Relative humidity 80.0 % at 25 °C): 2.55%
Hygroscopic weight increase (%) ([2]; Relative humidity 90.0 % at 25 °C): 3.28%
crystalline form changes after DVS testing ([2]; after DVS testing): no crystalline form changes
Appearance ([3]; 50 °C, 11 days): White powder
Purity (%) ([3]; 50 °C, 11 days): 99.36%
Appearance ([3]; 50 °C/75%RH, 11 days): White powder
Purity (%) ([3]; 50 °C/75%RH, 11 days): 99.36%
Appearance ([3]; 80 °C, 11 days): White powder
Purity (%) ([3]; 80 °C, 11 days): 99.22%
Appearance [3, 6]: White powder
Purity (%) [3, 6]: 99.39%
Appearance ([3]; Initial, 0 days): White powder
Purity (%) ([3]; Initial, 0 days): 99.44%
Appearance [3, 7]: White powder
Purity (%) [3, 7]: 99.43%
XRPD ([3]; 50 °C, 11 days): Free-form crystalline form F
XRPD ([3]; 50 °C/75%RH, 11 days): Free-form crystalline form F
XRPD ([3]; 80 °C, 11 days): Free-form crystalline form F
XRPD [3, 6]: Free-form crystalline form F
XRPD ([3]; Initial, 0 days): Free-form crystalline form F
XRPD [3, 7]: Free-form crystalline form F
SMILES: Cc1c(NC(=O)c2cc(C3CC3)c(CN3CCCC[C@H]3C(=O)O)cn2)cccc1-c1cccc(NC(=O)c2cc(C3CC3)c(CN3CCCC[C@H]3C(=O)O)cn2)c1C [free-form crystalline form F, (2S,2'S)-1,1'-(((((2,2'-dimethyl-[1,1'-biphenyl]-3,3'-diyl)bis(azanediyl))bis(carbonyl))bis(4-cyclopropylpyridine-6,3-diyl))bis(methylene))bis(piperidine-2-carboxylic acid)]
solubility (in words) [1]: extremely significantly improved solubility
physical and chemical stability (in words) ([3]; 50 °C, 50 °C/75% RH (open), 80 °C for 7 days and photostress for 10 days): extremely high physical and chemical stability

Equilibrium solubility ([1]; FaSSGF): 485 µg/mL
Equilibrium solubility ([1]; FaSSIF): 474 µg/mL
Equilibrium solubility ([1]; FeSSIF): ≥ 2000 µg/mL
Equilibrium solubility ([1]; Water, room temperature): ≥ 2000 µg/mL
Equilibrium solubility ([1]; pH 1.2, HCl 100 mM): ≥ 2000 µg/mL
Equilibrium solubility [1, 4]: 135 µg/mL
Equilibrium solubility [1, 5]: 194 µg/mL
pH24 hrs ([1]; FaSSGF): 1.72
pH24 hrs ([1]; FaSSIF): 6.93
pH24 hrs ([1]; FeSSIF): 6.90
pH24 hrs ([1]; Water): 9.96
pH24 hrs ([1]; pH 1.2, HCl 100 mM): 0.95
pH24 hrs [1, 4]: 4.92
pH24 hrs [1, 5]: 7.03
solubility (in words) [1]: excellent solubility
Appearance ([3]; 50 °C, 7 days): White powder
Purity (%) ([3]; 50 °C, 7 days): 92.11%
Appearance ([3]; 50 °C/75%RH, 7 days): White powder
Purity (%) ([3]; 50 °C/75%RH, 7 days): 92.97%
Appearance ([3]; 80 °C, 7 days): White powder
Purity (%) ([3]; 80 °C, 7 days): 90.77%
Appearance [3, 6]: White powder
Purity (%) [3, 6]: 89.50%
Appearance [3, 8]: White powder
Purity (%) [3, 8]: 88.10%
Appearance ([3]; Initial, 0 days): White powder
Purity (%) ([3]; Initial, 0 days): 91.23%
Appearance [3, 7]: White powder
Purity (%) [3, 7]: 83.10%
XRPD ([3]; 50 °C, 7 days): Crystalline form B of disodium salt
XRPD ([3]; 50 °C/75%RH, 7 days): Crystalline form B of disodium salt
XRPD ([3]; 80 °C, 7 days): Crystalline form B of disodium salt
XRPD [3, 6]: Crystalline form B of disodium salt
XRPD [3, 8]: Crystalline form B of disodium salt
XRPD ([3]; Initial, 0 days): Crystalline form B of disodium salt
XRPD [3, 7]: Crystalline form B of disodium salt
sensitivity to light (in words) ([3]; light exposure): sensitive to light exposure
SMILES: Cc1c(NC(=O)c2cc(C3CC3)c(CN3CCCC[C@H]3C(=O)O)cn2)cccc1-c1cccc(NC(=O)c2cc(C3CC3)c(CN3CCCC[C@H]3C(=O)O)cn2)c1C [crystalline form B of disodium salt anhydrate] [(2S,2'S)-1,1'-(((((2,2'-dimethyl-[1,1'-biphenyl]-3,3'-diyl)bis(azanediyl))bis(carbonyl))bis(4-cyclopropylpyridine-6,3-diyl))bis(methylene))bis(piperidine-2-carboxylic acid)]
physical and chemical stability (in words) ([3]; 50 °C, 50 °C/75% RH or brown light exposure): relatively high physical and chemical stability
crystalline form transformation (in words) ([3]; high temperature and light exposure): no crystalline form transformation was observed
physical stability (in words) ([3]; stability testing conditions, incl. high temperature and high humidity): good physical stability; also recorded: relatively high physical stability
